Assay results: US8158605B2, “Azacytidine analogues and uses thereof” (Mount Sinai School of Medicine, priority 2007, dated 2012)

Columns and labels:
[1] = system: MT-3/ADR resistant breast carcinoma; test: MTT cytotoxicity; format: cell-based; settings: MDR1, MT-3/ADR resistant breast carcinoma (overexpress MDR-1/p-glycoprotein), 24 hours
Protocol: (§1) The cytotoxicity of Aza-C and 5-Aza-C-5′-elaidic acid was determined in a breast cancer cell line MT-3 and the adriablastin resistant cell line MT-3/ADR. The MT-3/ADR overexpress the MDR-1/p-glycoprotein. […] The cells were incubated for 24 hours. […] Six wells were used per test concentration. The cells were incubated with test compound for 24 hours. […] Similar activity was obtained for Aza-C and 5-Aza-C-5′-elaidic acid in the MT-3 breast carcinoma cell line, but in the MT-3/ADR resistant cell line the activity of Aza-C was lost. […] This may be of importance in the treatment of resistant cancer.

[2] = system: breast carcinoma cell line MT-3; test: MTT cytotoxicity; format: cell-based; settings: MT-3 breast carcinoma, 24 hours
Protocol: as §1

[3] = clinical plasma samples; cited from earlier work
NFκB = test: LPS stimulated NFκB luciferase reporter activity in U937 cells; format: cell-based, human; settings: 10 nM, LPS 1 μg/ml, 1, 3 or 6 hours, compared to DMSO treated control
Protocol: NFκB-luciferase reporter genes were used to determine the influence of Aza-C and 5-Aza-C-5′-elaidic acid on NFκB-induced luciferase activity in a human monocytic cell line U937, stably transfected with a luciferase reporter containing three NFκB-binding sites. The induction of NFκB was performed using lipopolysaccharide (LPS) at 1 μg/ml for 30 minutes prior to the addition of Aza-C or 5-Aza-C-5′-elaidic acid in the concentrations 10 nM to the medium. The cells were cultured in RPMI-1640 medium including 10% fetal bovine serum. Before stimulation with LPS the cells were transferred to medium containing only 2% fetal bovine serum. Luciferase activity was measured by imaging in an IVIS imaging System 100 (Xenogen Corp., USA) after 1, 3 or 6 hours. The LPS stimulation increased with time over the 6 hours followed in the DMSO treated control cells. […] Generally, a positive stimulation of NFκB as observed for azacytidine is not positive, and it is positive that the LPS stimulation is not further increased by 5′Aza-C-5′-elaidic acid.

[4] = system: U937, HL60 and K562 cells; test: Differentiating induction (NBT reduction, benzidine staining); format: cell-based, human; settings: repeated exposure for 11 (HL60) or 14 (U937, K562) days
Protocol: Cell differentiation was studied in terms of morphology. […] After initial treatment on day 0, cells were exposed to the new portions of drugs on day 4, 7, and 10. The differentiation was evaluated by NBT reduction assay (U937 and HL60) or by benzidine staining (K562).

HL60 = test: WST-1 cytotoxicity assay; format: cell-based; settings: Homo sapiens, HL-60
Protocol: (§2) Human promyelocytic leukemia cell lines HL60, human histiocytic lymphoma U937, human chronic myelogenous leukemia K562, human acute T cell Jurkat, breast adenocarcinoma MCF-7, urinary bladder carcinoma 5637, prostate carcinoma DU-145 were purchased from American Type Culture Collection. All cell lines except Jurkat were maintained in RPMI 1640 medium (Gibco, Glasgow, UK) supplemented with 10% heat-inactivated fetal calf serum (FCS), 100 U/ml of penicillin, and […] streptomycin, in an atmosphere of 5% CO2 at 37° C. Jurkat cells were cultured in RPMI 1640 medium supplemented with 1.5 g/L sodium bicarbonate, 4.5 g/L glucose, 10 mM sodium pyruvate, and 10% FCS, 100 U/ml of penicillin, and […] streptomycin.
(§3) MCF-7, DU-145, and 5637 cells (1×10^4/ml) were plated and allowed to adhere and spread for 24 hours. […] Cultures were incubated with WST-1 reagent for 1 hour. The production of formazan was measured by a microplate reader (Bio-Tek Instruments, Elx 800) at 450 nm with a reference wavelength of 650 nm. Growth inhibition was determined as compared to untreated cells (%). IC50 values were calculated using CalcuSyn software (Biosoft).

K562 = test: WST-1 cytotoxicity assay; format: cell-based; settings: Homo sapiens
Protocol: as §2, §3

Jurkat = test: WST-1 cytotoxicity assay; format: cell-based; settings: Homo sapiens
Protocol: as §2, §3

5637 = test: WST-1 cytotoxicity assay; format: cell-based
Protocol: as §2, §3

U937 = test: WST-1 cytotoxicity assay; format: cell-based; settings: Homo sapiens, U-937
Protocol: as §2, §3

DU145 = test: WST-1 cytotoxicity assay; format: cell-based; settings: Homo sapiens, DU-145
Protocol: as §2, §3

MCF-7 = test: WST-1 cytotoxicity assay; format: cell-based; settings: Homo sapiens, MCF7
Protocol: as §2, §3

[5] = system: Hela cervix carcinoma cells; test: MTT cytotoxicity with or without nucleoside transport inhibitor dipyridamole; format: cell-based; settings: for IC50: Homo sapiens, HeLa, 72 h, MTT
Protocol: Dipyridamole was used as an inhibitor of the equilibrative nucleoside transporters hENT1 and hENT2. […] The cells were pre-incubated for 24 hours. Dipyridamole (10 μM) was added to the cells 30 minutes prior to the addition of the test compounds. […] Six wells were used per test concentration. The cells were incubated with test compound for 72 hours.

Question: For Nc1ncn([C@@H]2O[C@H](CO)[C@@H](O)[C@H]2O)c(=O)n1 [5-AzaC, 5-azacytidine, reference compound], which IC50 [1] is on record?
Answer: The IC50 was > 100 µM.

Question: And the IC50 [2]?
Answer: The IC50 was 12.6 ± 2.35 µM.

Question: What about the average terminal half-life [3] of the same compound?
Answer: Its average terminal half-life is 1.50 ± 2.30 h.

Question: And the “LPS stimulated NFκB luciferase activity” value (NFκB)?
Answer: The value was “further increased the LPS induced NFκB activation”.

Question: What about the differentiation induction [4] of the same compound?
Answer: The differentiation induction was “did not induce significant differentiation”.

Question: What about the IC50 (HL60; HL60, 24 hour treatment) of the same compound?
Answer: The IC50 was 7.28 µM.

Question: And the IC50 (HL60; HL60, 48 hour treatment)?
Answer: Its IC50 is 4.92 µM.

Question: And the IC50 (HL60; HL60, 72 hour treatment)?
Answer: Its IC50 is 4.71 µM.

Question: What about the IC50 (K562; K562, 24 hour treatment) of the same compound?
Answer: Its IC50 is 8.27 µM.

Question: What about the IC50 (K562; K562, 48 hour treatment) of the same compound?
Answer: Its IC50 is 15.5 µM.

Question: And the IC50 (K562; K562, 72 hour treatment)?
Answer: The IC50 was 5.83 µM.

Question: And the IC50 (Jurkat; 24 hour treatment)?
Answer: Its IC50 is 9.5 µM.

Question: And the IC50 (Jurkat; 48 hour treatment)?
Answer: Its IC50 is 5.32 µM.

Question: What about the IC50 (Jurkat; 72 hour treatment) of the same compound?
Answer: The IC50 was 4.77 µM.

Question: What about the IC50 (5637; 5637, 24 hour treatment) of the same compound?
Answer: The IC50 was 24.6 µM.

Question: And the IC50 (5637; 5637, 48 hour treatment)?
Answer: The IC50 was 6.72 µM.

Question: What about the IC50 (5637; 5637, 72 hour treatment) of the same compound?
Answer: The IC50 was 5.21 µM.

Question: What about the IC50 (U937; U937, 24 hour treatment) of the same compound?
Answer: The IC50 was 1.63 µM.

Question: And the IC50 (U937; U937, 48 hour treatment)?
Answer: Its IC50 is 2.37 µM.

Question: What about the IC50 (U937; U937, 72 hour treatment) of the same compound?
Answer: Its IC50 is 4.77 µM.

Question: And the IC50 (DU145; DU145, 24 hour treatment)?
Answer: The IC50 was 20.9 µM.

Question: What about the IC50 (DU145; DU145, 48 hour treatment) of the same compound?
Answer: Its IC50 is 7.11 µM.

Question: And the IC50 (DU145; DU145, 72 hour treatment)?
Answer: Its IC50 is 7.2 µM.

Question: What about the IC50 (MCF-7; MCF-7, 24 hour treatment) of the same compound?
Answer: The IC50 was > 160 µM.

Question: What about the IC50 (MCF-7; MCF-7, 48 hour treatment) of the same compound?
Answer: Its IC50 is 93.7 µM.

Question: And the IC50 (MCF-7; MCF-7, 72 hour treatment)?
Answer: Its IC50 is 53 µM.

Question: What about the “activity reduced by addition of dipyridamole” value ([5]; Hela, with vs without dipyridamole) of the same compound?
Answer: Its value is 3 fold.

Question: What about the IC50 ([5]; Hela with dipyridamole (10 μM)) of the same compound?
Answer: Its IC50 is 12.8 µM.

Question: What about the IC50 ([5]; without dipyridamole) of the same compound?
Answer: Its IC50 is 4.32 µM.
